The values below come from ChEMBL document CHEMBL1275276, “Analysis of physico-chemical properties of substrates of ABC and MFS multidrug transporters of pathogenic Candida albicans” (2010).

Calls of active or inactive are those of the source. How the calls were made is not given here. Numbered stars: 1 amine (or outer) side, 2 acyl side, 3 side chain; on linkers, the order of the positions; unused ones are H or OH. Bridge positions count the residues as written; N and C are the ends. Square brackets hold non-standard residues; d marks the D form. Peptide text beside a SMILES is read from it. I, II: the chains in the order shown. Actinocin(1to9) = Cc1c2oc3c(C)ccc(C(=O)[*:2])c3nc-2c(C(=O)[*:1])c(N)c1=O; NMeV = CN[C@H](C(=O)O)C(C)C; Sar = CNCC(=O)O

Assay [1] deals with Candida albicans. The experiment in a line: Binding affinity to Candida albicans CaCdr1p expressed in yeast AD1-8u.
The test system of assay [2] is Saccharomyces cerevisiae. The experiment in a line: Antifungal activity against yeast AD1-8u expressing Candida albicans CaMdr1p by agar disk diffusion assay. Further: test concentration or dose not given here. In kind it is functional.
Assay [3] relates to Candida albicans. The experiment in a line: Binding affinity to Candida albicans CaMdr1p expressed in yeast AD1-8u.
Assay [4] relates to Saccharomyces cerevisiae. The experiment in a line: Antifungal activity against yeast AD1-8u expressing Candida albicans CaCdr1p by agar disk diffusion assay. In kind it is functional.
Wherever IZ is given: test concentration or dose not given here.

`O=C(N[C@H](CO)[C@H](O)c1ccc([N+](=O)[O-])cc1)C(Cl)Cl` [CHLORAMPHENICOL]: the outcome with Candida albicans [1] was Active. Further, the results for the “inhibition zone (IZ)” value with Saccharomyces cerevisiae [2] and in the assay with Saccharomyces cerevisiae [4] were 0 cm and 0.8 cm, respectively. Also, the outcome in the assay with Candida albicans [3] was inactive.

Consider `CON(C)C(=O)Nc1ccc(Br)c(Cl)c1` [CHLORBROMURON], for which the outcome with Candida albicans [1] was Active. Besides, the “inhibition zone (IZ)” value was 0.1 cm in the assay on Saccharomyces cerevisiae [2] and 0.9 cm in the assay with Saccharomyces cerevisiae [4]. In the assay on Candida albicans [3], the outcome was inactive.

For `Clc1ccccc1C(c1ccccc1)(c1ccccc1)n1ccnc1` [CLOTRIMAZOLE], in the assay on Candida albicans [1], the outcome was Active. Further, the results for the “inhibition zone (IZ)” value in the assay on Saccharomyces cerevisiae [2] and with Saccharomyces cerevisiae [4] were 0 cm and 0.7 cm, respectively. Also, the result with Candida albicans [3] was inactive.

For `COc1cc2c(c(OC)c1OC)-c1ccc(OC)c(=O)cc1[C@@H](NC(C)=O)CC2` [COLCHICINE], the result in the assay with Candida albicans [1] and in the assay with Candida albicans [3] was inactive. The “inhibition zone (IZ)” value in the assay on Saccharomyces cerevisiae [2] and in the assay on Saccharomyces cerevisiae [4] was 0 cm each time.

For `C[C@@H]1C[C@@H]([C@H](O)CC2CC(=O)NC(=O)C2)C(=O)[C@@H](C)C1` [CYCLOHEXIMIDE], the outcome in the assay with Candida albicans [1] and with Candida albicans [3] was Active. The “inhibition zone (IZ)” value was determined as 0.8 cm in the assay with Saccharomyces cerevisiae [2] and 1.2 cm in the assay with Saccharomyces cerevisiae [4].

As to `O=P1(N(CCCl)CCCl)NCCCO1` (centres undefined) [CYCLOPHOSPHAMIDE ANHYDROUS], the outcome in the assay with Candida albicans [1] and with Candida albicans [3] was inactive. The “inhibition zone (IZ)” value with Saccharomyces cerevisiae [2] and with Saccharomyces cerevisiae [4] was 0 cm throughout.

With `Cc1c2oc3c(C)ccc(C(=O)N[C@@H]4C(=O)N[C@H](C(C)C)C(=O)N5CCC[C@H]5C(=O)N(C)CC(=O)N(C)[C@@H](C(C)C)C(=O)O[C@@H]4C)c3nc-2c(C(=O)N[C@@H]2C(=O)N[C@H](C(C)C)C(=O)N3CCC[C@H]3C(=O)N(C)CC(=O)N(C)[C@@H](C(C)C)C(=O)O[C@@H]2C)c(N)c1=O` [DACTINOMYCIN] (I: T[dV]P[Sar][NMeV] / II: T[dV]P[Sar][NMeV]; ester I:1-I:C, II:1-II:C; linker I:N-II:N via Actinocin(1to9)), the result in the assay with Candida albicans [1] was inactive. Moreover, the “inhibition zone (IZ)” value is 0.3 cm with Saccharomyces cerevisiae [2] and 0.1 cm in the assay on Saccharomyces cerevisiae [4]. For the same compound, the outcome in the assay on Candida albicans [3] was Active.

In the case of `COc1cccc2c1C(=O)c1c(O)c3c(c(O)c1C2=O)C[C@@](O)(C(C)=O)C[C@@H]3O[C@H]1C[C@H](N)[C@H](O)[C@H](C)O1` [DAUNORUBICIN], the outcome in the assay on Candida albicans [1] was Active. In addition, the “inhibition zone (IZ)” value with Saccharomyces cerevisiae [2] is given as 0 cm; in the assay with Saccharomyces cerevisiae [4], 0.5 cm. Further, in the assay with Candida albicans [3], the result was inactive.

With `CN(C)C(=O)Nc1ccc(Cl)c(Cl)c1` [DCMU], the result with Candida albicans [1] and in the assay on Candida albicans [3] was Active. For the same compound, the “inhibition zone (IZ)” value in the assay on Saccharomyces cerevisiae [2] and with Saccharomyces cerevisiae [4] was 0.8 cm in each case.

For the compound `C[C@@H]1C[C@H]2[C@@H]3CCC4=CC(=O)C=C[C@]4(C)[C@@]3(F)[C@@H](O)C[C@]2(C)[C@@]1(O)C(=O)CO` [DEXAMETHASONE], the outcome in the assay on Candida albicans [1] was Active. The figures for the “inhibition zone (IZ)” value with Saccharomyces cerevisiae [2] and in the assay on Saccharomyces cerevisiae [4] were 0 cm and 0.9 cm, respectively. The outcome with Candida albicans [3] was inactive.

Take `COc1cccc2c1C(=O)c1c(O)c3c(c(O)c1C2=O)C[C@@](O)(C(=O)CO)C[C@@H]3O[C@H]1C[C@H](N)[C@H](O)[C@H](C)O1` [DOXORUBICIN]: the result in the assay on Candida albicans [1] and in the assay on Candida albicans [3] was Active. The entries for the “inhibition zone (IZ)” value in the assay with Saccharomyces cerevisiae [2] and in the assay with Saccharomyces cerevisiae [4] were 0.3 cm and 0.4 cm, respectively.

With `C[C@]12CC[C@@H]3c4ccc(OS(=O)(=O)O)cc4CC[C@H]3[C@@H]1CCC2=O` [ESTRONE SULFURIC ACID], the outcome with Candida albicans [1] and in the assay with Candida albicans [3] was inactive. The “inhibition zone (IZ)” value in the assay with Saccharomyces cerevisiae [2] and in the assay with Saccharomyces cerevisiae [4] was 0 cm in each case.

As to `COc1cc([C@@H]2c3cc4c(cc3[C@@H](O[C@@H]3O[C@@H]5CO[C@@H](C)O[C@H]5[C@H](O)[C@H]3O)[C@H]3COC(=O)[C@H]23)OCO4)cc(OC)c1O` [ETOPOSIDE], the outcome in the assay on Candida albicans [1] and with Candida albicans [3] was Active. Also, the “inhibition zone (IZ)” value with Saccharomyces cerevisiae [2] was found to be 0.3 cm; with Saccharomyces cerevisiae [4], 1.5 cm.

Regarding `OC(Cn1cncn1)(Cn1cncn1)c1ccc(F)cc1F` [FLUCONAZOLE], the result with Candida albicans [1] and with Candida albicans [3] was Active. Moreover, the “inhibition zone (IZ)” value in the assay with Saccharomyces cerevisiae [2] is 1.6 cm; with Saccharomyces cerevisiae [4] it was 2.3 cm.

In the case of `Nc1nc(=O)[nH]cc1F` [FLUCYTOSINE], the outcome with Candida albicans [1] and in the assay with Candida albicans [3] was inactive. Moreover, the “inhibition zone (IZ)” value with Saccharomyces cerevisiae [2] and with Saccharomyces cerevisiae [4] was 0 cm each time.

Turning to `OCCN1CCN(CCCN2c3ccccc3Sc3ccc(C(F)(F)F)cc32)CC1` [FLUPHENAZINE], the result in the assay with Candida albicans [1] was Active. Moreover, the entries for the “inhibition zone (IZ)” value in the assay on Saccharomyces cerevisiae [2] and with Saccharomyces cerevisiae [4] were 0.2 cm and 0.3 cm, respectively. For the same compound, in the assay on Candida albicans [3], the outcome was inactive.

On to `COc1ccc2c3c([nH]c2c1)[C@H](C=C(C)C)N1C(=O)[C@@H]2CCCN2C(=O)[C@@H]1C3` [FUMITREMORGIN], for which the result in the assay with Candida albicans [1] and in the assay on Candida albicans [3] was inactive. For the same compound, the “inhibition zone (IZ)” value with Saccharomyces cerevisiae [2] and in the assay with Saccharomyces cerevisiae [4] was 0 cm each time.

Regarding `c1c[nH]cn1` [IMIDAZOLE], the outcome in the assay on Candida albicans [1] and with Candida albicans [3] was inactive. Also, the “inhibition zone (IZ)” value in the assay with Saccharomyces cerevisiae [2] and with Saccharomyces cerevisiae [4] was 0 cm each time.

Consider `COc1ccc2c(c1)c(CC(=O)O)c(C)n2C(=O)c1ccc(Cl)cc1` [INDOMETHACIN], for which the result in the assay on Candida albicans [1] and in the assay with Candida albicans [3] was inactive. In addition, the “inhibition zone (IZ)” value in the assay with Saccharomyces cerevisiae [2] and with Saccharomyces cerevisiae [4] was 0 cm each time.

Take `CCC(C)n1ncn(-c2ccc(N3CCN(c4ccc(OCC5COC(Cn6cncn6)(c6ccc(Cl)cc6Cl)O5)cc4)CC3)cc2)c1=O` (centres undefined) [ITRACONAZOLE]: the result in the assay with Candida albicans [1] was Active. The “inhibition zone (IZ)” value in the assay with Saccharomyces cerevisiae [2] was determined as 0 cm; in the assay with Saccharomyces cerevisiae [4], 1.1 cm. Further, the result in the assay on Candida albicans [3] was inactive.

With `NC[C@H]1O[C@H](O[C@H]2[C@H](O)[C@@H](O[C@H]3O[C@H](CO)[C@@H](O)[C@H](N)[C@H]3O)[C@H](N)C[C@@H]2N)[C@H](O)[C@@H](O)[C@@H]1O` [KANAMYCIN], in the assay with Candida albicans [1], the outcome was inactive. In addition, the results for the “inhibition zone (IZ)” value with Saccharomyces cerevisiae [2] and in the assay on Saccharomyces cerevisiae [4] were 0.3 cm and 0.1 cm, respectively. Further, the outcome in the assay with Candida albicans [3] was Active.

For `CCC[C@@H]1C[C@@H](C(=O)N[C@@H]([C@H]2O[C@H](SC)[C@H](O)[C@@H](O)[C@H]2O)[C@@H](C)O)N(C)C1` [LINCOMYCIN], the outcome in the assay on Candida albicans [1] and in the assay with Candida albicans [3] was inactive. The “inhibition zone (IZ)” value with Saccharomyces cerevisiae [2] and with Saccharomyces cerevisiae [4] was 0 cm each time.

For `CON(C)C(=O)Nc1ccc(Cl)c(Cl)c1` [LINURON], the result with Candida albicans [1] and with Candida albicans [3] was Active. Further, the “inhibition zone (IZ)” value with Saccharomyces cerevisiae [2] is 0.6 cm; with Saccharomyces cerevisiae [4] it was 0.8 cm.

In the case of `CN(Cc1cnc2nc(N)nc(N)c2n1)c1ccc(C(=O)N[C@@H](CCC(=O)O)C(=O)O)cc1` [METHOTREXATE], in the assay on Candida albicans [1], the result was inactive. The “inhibition zone (IZ)” value was found to be 0.8 cm in the assay on Saccharomyces cerevisiae [2] and 0.1 cm in the assay on Saccharomyces cerevisiae [4]. The result in the assay with Candida albicans [3] was Active.

Take `Clc1ccc(COC(Cn2ccnc2)c2ccc(Cl)cc2Cl)c(Cl)c1` (centres undefined) [MICONAZOLE]: the outcome in the assay on Candida albicans [1] was Active. Besides, the “inhibition zone (IZ)” value came out at 0.2 cm in the assay on Saccharomyces cerevisiae [2] and 0.5 cm in the assay with Saccharomyces cerevisiae [4]. Besides, the outcome in the assay with Candida albicans [3] was inactive.

Regarding `O=C1c2c(O)ccc(O)c2C(=O)c2c(NCCNCCO)ccc(NCCNCCO)c21` [MITOXANTRONE], the result with Candida albicans [1] was inactive. The “inhibition zone (IZ)” value worked out at 0.3 cm with Saccharomyces cerevisiae [2] and 0.2 cm in the assay on Saccharomyces cerevisiae [4]. The outcome with Candida albicans [3] was Active.

Turning to `COc1c(C)c2c(c(O)c1C/C=C(\C)CCC(=O)O)C(=O)OC2` [MYCOPHENOLIC ACID], the result with Candida albicans [1] and in the assay on Candida albicans [3] was inactive. Further, the “inhibition zone (IZ)” value with Saccharomyces cerevisiae [2] and in the assay on Saccharomyces cerevisiae [4] was 0 cm each time.

For the compound `COC(=O)C1=C(C)NC(C)=C(C(=O)OC)C1c1ccccc1[N+](=O)[O-]` [NIFEDIPINE], the outcome with Candida albicans [1] and with Candida albicans [3] was inactive. For the same compound, the “inhibition zone (IZ)” value in the assay with Saccharomyces cerevisiae [2] and with Saccharomyces cerevisiae [4] was 0 cm each time.

Consider `COC(=O)C1=C(C)NC(C)=C(C(=O)OCCCN2CCC(c3ccccc3)(c3ccccc3)CC2)[C@H]1c1cccc([N+](=O)[O-])c1` [NIGULDIPINE], for which the result with Candida albicans [1] was Active. In addition, the results for the “inhibition zone (IZ)” value in the assay on Saccharomyces cerevisiae [2] and in the assay on Saccharomyces cerevisiae [4] were 0.2 cm and 0.5 cm, respectively. In addition, the outcome in the assay on Candida albicans [3] was inactive.

As for `COCCOC(=O)C1=C(C)NC(C)=C(C(=O)OC(C)C)C1c1cccc([N+](=O)[O-])c1` (centres undefined) [NIMODIPINE], the result with Candida albicans [1] and in the assay on Candida albicans [3] was inactive. Further, the “inhibition zone (IZ)” value with Saccharomyces cerevisiae [2] and in the assay with Saccharomyces cerevisiae [4] was 0 cm each time.

As to `CO[C@@H]1[C@@H](OC(N)=O)[C@@H](O)[C@H](Oc2ccc3c(O)c(NC(=O)c4ccc(O)c(CC=C(C)C)c4)c(=O)oc3c2C)OC1(C)C` [NOVOBIOCIN], the outcome in the assay with Candida albicans [1] and with Candida albicans [3] was inactive. Moreover, the “inhibition zone (IZ)” value in the assay with Saccharomyces cerevisiae [2] and in the assay on Saccharomyces cerevisiae [4] was 0 cm each time.
